From ChEMBL document CHEMBL4732203, “Synthesis of polyenylpyrrole derivatives with selective growth inhibitory activity against T-cell acute lymphoblastic leukemia cells” (Bioorg Med Chem Lett, 2021) come the findings set out here.

Structures are written as SMILES.

Usually IC50 stands for the midpoint of a concentration-inhibition curve.

Type in all cases: functional, cell-based
For one test, the system named is CCRF-CEM. The test can be described thus: Cytotoxicity against human CCRF-CEM cells assessed as reduction in cell viability incubated for 72 hrs.
A further test has as its system Raji. The test can be described thus: Cytotoxicity against human Raji cells assessed as reduction in cell viability incubated for 72 hrs.
Another test deals with HeLa. The test can be described thus: Cytotoxicity against human HeLa cells assessed as reduction in cell viability incubated for 3 days. Particulars: 72 h.
In a further test the test system is HSC-3. Put plainly: Cytotoxicity against human HSC-3 cells assessed as reduction in cell viability incubated for 3 days. The following applies: HSC-3, 72 h.

`O=C(/C=C/C=C/C=C/c1ccc[nH]1)c1ccccc1`: the figures for the IC50 with CCRF-CEM and in the test with Raji were 3.07 µM and 9.89 µM, respectively.
In the case of `CCOC(=O)/C=C/C=C/C=C/C=C/c1cccn1C`, the IC50 in the test on CCRF-CEM and in the test with Raji was greater than 10 µM throughout.
`CCOC(=O)/C=C/C=C/C=C/c1ccc[nH]1`: the results for the 50% inhibitory concentration (IC50) in the test on CCRF-CEM and in the test with Raji were 3.67 µM and greater than 10 µM, respectively.
On the same counts, the results for `O=C(/C=C/C=C/C=C/C=C/c1ccc[nH]1)OCc1ccccc1` are 0.19 µM and 1.4 µM.
The like results for `CCOC(=O)/C=C/C=C/c1ccco1` were, in that order, greater than 10 µM and greater than 10 µM.
Consider `O=C(/C=C/C=C/C=C/C=C/c1ccc[nH]1)c1ccccc1`, for which the IC50 turned out to be 0.72 µM with CCRF-CEM and 5.99 µM in the test with Raji.
With `COc1cc(\C(C)=C/C=C/C=C/C=C/c2[nH]ccc2Cl)oc(=O)c1C`, the half-maximal inhibitory concentration (IC50) with CCRF-CEM is 1.76 µM; with Raji it was greater than 10 µM.
The like results for `COc1cc(/C=C/C=C/C=C/C=C/c2[nH]ccc2Cl)oc(=O)c1` [AUXARCONJUGATIN B] were, in that order, 0.51 µM and 5.74 µM.
Consider `CCOC(=O)/C=C/c1ccc[nH]1`, for which the half-maximal inhibitory concentration (IC50) in the test with CCRF-CEM and in the test on Raji was greater than 10 µM throughout.
Regarding `CCOC(=O)/C=C/C=C/C=C/C=C/C=C/c1ccc[nH]1`, the IC50 in the test with CCRF-CEM is 0.45 µM; in the test on Raji, greater than 10 µM.
On the same counts, the results for `CCOC(=O)/C=C/C=C/C=C/C=C/c1nccs1` are greater than 10 µM and greater than 10 µM.
As to `O=C(/C=C/C=C/C=C/c1ccc[nH]1)OCc1ccccc1`, the IC50 with CCRF-CEM was 0.83 µM; in the test with Raji it was greater than 10 µM.
On to `CCOC(=O)/C=C/C=C/C=C/c1[nH]ccc1Cl`, for which the IC50 in the test on CCRF-CEM was 2.42 µM; in the test on Raji it was greater than 10 µM.
As for `CCOC(=O)/C=C/C=C/C=C/C=C/c1[nH]ccc1Cl`, the IC50 in the test with CCRF-CEM is 0.27 µM; in the test with HeLa it was greater than 10 µM; in the test with Raji it was greater than 10 µM; with HSC-3 it was greater than 10 µM.
As to `CCOC(=O)/C=C/C=C/C=C/C=C/c1ccco1`, the half-inhibitory concentration (IC50) with CCRF-CEM and in the test with Raji was greater than 10 µM in each case.
Turning to `CCOC(=O)/C=C/C=C/C=C/c1ccco1`, the half-maximal inhibitory concentration (IC50) in the test with CCRF-CEM and in the test with Raji was greater than 10 µM in each case.
With `O=C(/C=C/C=C/C=C/C=C/c1[nH]ccc1Cl)OCc1ccccc1`, the IC50 with CCRF-CEM was determined as 0.28 µM; in the test on Raji it was 6.7 µM.
For `CCOC(=O)/C=C/C=C/c1ccc[nH]1`, the IC50 with CCRF-CEM and in the test with Raji was greater than 10 µM each time.
Take `CCOC(=O)/C=C/C=C/C=C/c1nccs1`: the IC50 in the test with CCRF-CEM amounted to 4.5 µM; with Raji, 4.35 µM.
On the same counts, the results for `CCOC(=O)/C=C/C=C/C=C/C=C/c1ccc[nH]1` are 1.34 µM and 4.09 µM.
As for `CCOC(=O)/C=C/C=C/c1[nH]ccc1Cl`, the IC50 with CCRF-CEM and in the test on Raji was greater than 10 µM each time.
`CCOC(=O)/C=C/C=C/c1nccs1`: the IC50 with CCRF-CEM and in the test on Raji was greater than 10 µM throughout.
